Data set [1] is described as follows: Cytotoxicity against human HepAD38 cells assessed as reduction in cell viability. The format is cell-based.
The test system of the next data set is Hepatitis B virus. Nature of the data set: Antiviral activity against HBV infected in human HepAD38 cells assessed as inhibition of viral DNA synthesis by dot blot hybridization method. The format is functional, organism-based. Details: -log(1/EC50): unit not given here. As to conditions: for EC50: Hepatitis B virus, HePAD38.
The next data set relates to HepG2. Nature of the data set: Cytotoxicity against human HepG2 cells assessed as reduction in cell viability. The format is cell-based.

In the case of `O=C(N/C(C(=O)N1CCCCC1)=C(\Cl)c1ccccc1)c1ccccc1`, in data set [1], the Activity result is given as “Non-toxic”. For the same molecule, in the data set with Hepatitis B virus, the “-log(1/EC50)” value turned out to be 0.07918 and the EC50 was found to be 1.2 µM. In the data set with HepG2, the Activity result is recorded as “Non-toxic”.
For the molecule `COc1ccccc1/C(Cl)=C(/NC(=O)c1ccccc1)C(=O)N1CCCCC1`, the Activity result in data set [1] is “Non-toxic”. Moreover, in the data set with Hepatitis B virus, the “-log(1/EC50)” value stood at 1.322 and the half-maximal effective concentration (EC50) turned out to be 21 µM.
Take `Cc1ccccc1/C(Cl)=C(/NC(=O)c1ccccc1)C(=O)N1CCCCC1`: in data set [1], the Activity result is reported as “Non-toxic”. Further, in the data set on Hepatitis B virus, the “-log(1/EC50)” value was -0.004365 and the EC50 is 1 µM.
For `O=C(N/C(C(=O)N1CCCCC1)=C(\Cl)c1ccccc1F)c1ccccc1`, the Activity result in data set [1] was “Non-toxic”. Also, in the data set on Hepatitis B virus, the “-log(1/EC50)” value was 0.2553 and the EC50 was determined as 1.8 µM.
On to `O=C(N/C(C(=O)N1CCCCC1)=C(\Cl)c1ccc(Cl)cc1)c1ccccc1`, for which the Activity entry in data set [1] is on record as “Non-toxic”. Further, in the data set with Hepatitis B virus, the “-log(1/EC50)” value was 1.708 and the half-maximal effective concentration (EC50) came out at 51 µM.
Taken in the same sequence, the figures for `Cc1ccc(/C(Cl)=C(/NC(=O)c2ccccc2)C(=O)N2CCCCC2)cc1` were “Non-toxic”, 0.04139 and 1.1 µM.
In the same order, the values of `O=C(N/C(C(=O)N1CCCCC1)=C(\Br)c1ccccc1)c1ccccc1` are “Non-toxic”, 0.1139 and 1.3 µM.
In the same order, the values of `N#Cc1ccccc1/C(Br)=C(/NC(=O)c1ccccc1)C(=O)N1CCCCC1` are “Non-toxic”, 0.04139 and 1.1 µM.
In the case of `O=C(N/C(C(=O)N1CCCCC1)=C(\Cl)c1cncc2ccccc12)c1ccccc1`, the Activity result in data set [1] is recorded as “Non-toxic”. For the same molecule, in the data set with Hepatitis B virus, the “-log(1/EC50)” value turned out to be 1.462 and the EC50 was found to be 29 µM.
In the same order, the values of `O=C(N/C(C(=O)N1CCCCC1)=C(\Cl)c1ccco1)c1ccccc1` are “Non-toxic”, -0.09691 and 0.8 µM.
In the same order, the values of `O=C(N/C(C(=O)N1CCCCC1)=C(\Br)c1ccccc1[N+](=O)[O-])c1ccccc1` are “Non-toxic”, 0.7782 and 6 µM.
Taken in the same sequence, the figures for `O=C(N/C(C(=O)N1CCCCC1)=C(\Br)c1ccc(Cl)cc1)c1ccccc1` were “Non-toxic”, 1 and 10 µM.
For the molecule `Cc1ccccc1/C(Br)=C(/NC(=O)c1ccccc1)C(=O)N1CCCCC1`, the Activity result in data set [1] is on record as “Non-toxic”. Further, in the data set on Hepatitis B virus, the “-log(1/EC50)” value is -0.05061 and the EC50 came out at 0.9 µM.
Taken in the same sequence, the figures for `Cc1ccc(/C(Br)=C(/NC(=O)c2ccccc2)C(=O)N2CCCCC2)cc1` were “Non-toxic”, 0.4472 and 2.8 µM.
Take `COc1ccccc1/C(Br)=C(/NC(=O)c1ccccc1)C(=O)N1CCCCC1`: the Activity result in data set [1] was “Non-toxic”. Further, in the data set on Hepatitis B virus, the “-log(1/EC50)” value is 0.3222 and the 50% effective concentration (EC50) was determined as 2.1 µM.
Turning to `COc1ccc(/C(Br)=C(/NC(=O)c2ccccc2)C(=O)N2CCCCC2)cc1`, the Activity result in data set [1] is recorded as “Non-toxic”. Further, in the data set on Hepatitis B virus, the “-log(1/EC50)” value is reported as 0.9031 and the EC50 came to 8 µM.
Taken in the same sequence, the figures for `O=C(N/C(C(=O)N1CCCCC1)=C(\Br)c1ccccc1Br)c1ccccc1` were “Non-toxic”, 1.398 and 25 µM.
In the same order, the values of `O=C(N/C(C(=O)N1CCCCC1)=C(\Br)c1cccc(Br)c1)c1ccccc1` are “Non-toxic”, 1.544 and 35 µM.
In the case of `O=C(N/C(C(=O)N1CCCCC1)=C(\Br)c1ccc(Br)cc1)c1ccccc1`, the Activity result in data set [1] is on record as “Non-toxic”. In the data set with Hepatitis B virus, the “-log(1/EC50)” value was 1.813 and the EC50 came out at 65 µM.
Consider `O=C(N/C(C(=O)N1CCCCC1)=C(\Br)c1ccccc1F)c1ccccc1`, for which the Activity result in data set [1] is listed as “Non-toxic”. For the same molecule, in the data set on Hepatitis B virus, the “-log(1/EC50)” value came to 0.1761 and the concentration giving a half-maximal response (EC50) turned out to be 1.5 µM.
In the same order, the values of `O=C(N/C(C(=O)N1CCCCC1)=C(\Br)c1ccc(F)cc1)c1ccccc1` are “Non-toxic”, 0.2553 and 1.8 µM.
In the same order, the values of `O=C(N/C(C(=O)N1CCCCC1)=C(\Br)c1ccccc1Cl)c1ccccc1` are “Non-toxic”, 0.9031 and 8 µM.
Taken in the same sequence, the figures for `O=C(N/C(C(=O)N1CCCCC1)=C(\Br)c1cccnc1)c1ccccc1` were “Non-toxic”, 0 and 1 µM.
Consider `O=C(N/C(C(=O)N1CCCCC1)=C(\Br)c1cnc2ccccc2c1)c1ccccc1`, for which the Activity result in data set [1] was “Non-toxic”. Further, in the data set with Hepatitis B virus, the “-log(1/EC50)” value was 0.8451 and the EC50 turned out to be 7 µM.
On to `O=C(N/C(C(=O)N1CCCCC1)=C(\Br)c1cncc2ccccc12)c1ccccc1`, for which, in data set [1], the Activity entry is on record as “Non-toxic”. Besides, in the data set with Hepatitis B virus, the “-log(1/EC50)” value was 0.699 and the EC50 turned out to be 5 µM.
Taken in the same sequence, the figures for `O=C(N/C(C(=O)N1CCCCC1)=C(\Br)c1ccco1)c1ccccc1` were “Non-toxic”, -0.04576 and 0.9 µM.
In the same order, the values of `N#Cc1ccccc1/C(Cl)=C(/NC(=O)c1ccccc1)C(=O)N1CCCCC1` are “Non-toxic”, 0.2304 and 1.7 µM.
In the same order, the values of `O=C(N/C(C(=O)N1CCCCC1)=C(\Cl)c1ccccc1[N+](=O)[O-])c1ccccc1` are “Non-toxic”, 1.531 and 34 µM.
As for `COc1ccc(/C(Cl)=C(/NC(=O)c2ccccc2)C(=O)N2CCCCC2)cc1`, the Activity result in data set [1] is given as “Non-toxic”. In the data set with Hepatitis B virus, the “-log(1/EC50)” value is 1.398 and the EC50 amounted to 25 µM.
In the same order, the values of `O=C(N/C(C(=O)N1CCCCC1)=C(\Cl)c1ccccc1Br)c1ccccc1` are “Non-toxic”, 2 and above 100 µM.
In the same order, the values of `O=C(N/C(C(=O)N1CCCCC1)=C(\Cl)c1cccc(Br)c1)c1ccccc1` are “Non-toxic”, 2 and above 100 µM.
Taken in the same sequence, the figures for `O=C(N/C(C(=O)N1CCCCC1)=C(\Cl)c1ccc(Br)cc1)c1ccccc1` were “Non-toxic”, 2 and above 100 µM.
Consider `O=C(N/C(C(=O)N1CCCCC1)=C(\Cl)c1ccc(F)cc1)c1ccccc1`, for which the Activity result in data set [1] is given as “Non-toxic”. Moreover, in the data set on Hepatitis B virus, the “-log(1/EC50)” value is 0.3424 and the EC50 was found to be 2.2 µM.
Taken in the same sequence, the figures for `O=C(N/C(C(=O)N1CCCCC1)=C(\Cl)c1ccccc1Cl)c1ccccc1` were “Non-toxic”, 1.591 and 39 µM.
Taken in the same sequence, the figures for `O=C(N/C(C(=O)N1CCCCC1)=C(\Cl)c1cccnc1)c1ccccc1` were “Non-toxic”, -0.02687 and 0.9 µM.
Taken in the same sequence, the figures for `O=C(N/C(C(=O)N1CCCCC1)=C(\Cl)c1cnc2ccccc2c1)c1ccccc1` were “Non-toxic”, 1.477 and 30 µM.

What is called EC50 is the concentration giving half of the maximal effect.

For the origin of these results see ChEMBL document CHEMBL3588769, “Synthesis and quantitative structure-activity relationships study for phenylpropenamide derivatives as inhibitors of hepatitis B virus replication” (Eur J Med Chem, 2015).
